# Read-outs that look alike come from different tables or passages of the source.
# Tests used:
# hTRPC5 = molecular target: T1, hTRPC5 (Homo sapiens, UniProt Q9UL62); assay: TRPC5 inhibitory activity assay (FLIPR calcium fluorescence, Englerin A stimulation); format: cell-based
# T1 construct: expressed in transfected cells; host or cells: HEK-293
# T1 sequence (Q9UL62 1-973): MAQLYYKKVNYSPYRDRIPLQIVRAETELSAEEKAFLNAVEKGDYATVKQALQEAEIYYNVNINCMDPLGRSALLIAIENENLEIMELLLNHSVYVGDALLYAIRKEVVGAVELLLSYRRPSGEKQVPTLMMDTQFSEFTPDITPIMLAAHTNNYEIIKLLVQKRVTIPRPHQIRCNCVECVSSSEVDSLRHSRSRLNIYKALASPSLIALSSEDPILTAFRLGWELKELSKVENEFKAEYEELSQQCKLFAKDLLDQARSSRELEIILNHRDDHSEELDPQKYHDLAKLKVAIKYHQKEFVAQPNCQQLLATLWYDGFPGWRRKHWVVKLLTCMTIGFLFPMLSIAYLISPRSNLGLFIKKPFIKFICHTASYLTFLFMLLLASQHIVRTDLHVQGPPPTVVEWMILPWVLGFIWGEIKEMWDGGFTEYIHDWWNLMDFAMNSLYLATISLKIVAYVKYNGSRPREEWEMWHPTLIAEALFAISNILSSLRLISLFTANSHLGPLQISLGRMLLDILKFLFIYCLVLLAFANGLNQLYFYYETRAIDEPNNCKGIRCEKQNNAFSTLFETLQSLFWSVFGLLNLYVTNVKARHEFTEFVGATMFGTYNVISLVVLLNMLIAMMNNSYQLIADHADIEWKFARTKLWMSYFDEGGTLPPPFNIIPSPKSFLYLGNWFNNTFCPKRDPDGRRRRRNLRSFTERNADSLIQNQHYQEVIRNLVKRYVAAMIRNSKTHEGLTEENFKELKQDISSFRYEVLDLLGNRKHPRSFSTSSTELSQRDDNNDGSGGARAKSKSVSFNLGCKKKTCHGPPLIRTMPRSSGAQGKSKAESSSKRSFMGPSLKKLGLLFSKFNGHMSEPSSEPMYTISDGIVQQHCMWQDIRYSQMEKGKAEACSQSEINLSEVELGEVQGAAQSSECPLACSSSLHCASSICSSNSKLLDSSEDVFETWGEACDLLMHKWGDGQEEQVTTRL
# Outline: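 HEK-293 cells expressing the human channel, loaded with 4 µM Fluo-4/AM for 60 min at 37 °C, then stimulated with Englerin A (0.3nM final) and read for 600 s.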
# hTRPC4 = molecular target: T2, hTRPC4 (Homo sapiens, UniProt Q9UBN4); assay: TRPC4 inhibitory activity assay (FLIPR calcium fluorescence); format: cell-based
# T2 construct: expressed in transfected cells; host or cells: HEK-293
# T2 sequence (Q9UBN4 1-977): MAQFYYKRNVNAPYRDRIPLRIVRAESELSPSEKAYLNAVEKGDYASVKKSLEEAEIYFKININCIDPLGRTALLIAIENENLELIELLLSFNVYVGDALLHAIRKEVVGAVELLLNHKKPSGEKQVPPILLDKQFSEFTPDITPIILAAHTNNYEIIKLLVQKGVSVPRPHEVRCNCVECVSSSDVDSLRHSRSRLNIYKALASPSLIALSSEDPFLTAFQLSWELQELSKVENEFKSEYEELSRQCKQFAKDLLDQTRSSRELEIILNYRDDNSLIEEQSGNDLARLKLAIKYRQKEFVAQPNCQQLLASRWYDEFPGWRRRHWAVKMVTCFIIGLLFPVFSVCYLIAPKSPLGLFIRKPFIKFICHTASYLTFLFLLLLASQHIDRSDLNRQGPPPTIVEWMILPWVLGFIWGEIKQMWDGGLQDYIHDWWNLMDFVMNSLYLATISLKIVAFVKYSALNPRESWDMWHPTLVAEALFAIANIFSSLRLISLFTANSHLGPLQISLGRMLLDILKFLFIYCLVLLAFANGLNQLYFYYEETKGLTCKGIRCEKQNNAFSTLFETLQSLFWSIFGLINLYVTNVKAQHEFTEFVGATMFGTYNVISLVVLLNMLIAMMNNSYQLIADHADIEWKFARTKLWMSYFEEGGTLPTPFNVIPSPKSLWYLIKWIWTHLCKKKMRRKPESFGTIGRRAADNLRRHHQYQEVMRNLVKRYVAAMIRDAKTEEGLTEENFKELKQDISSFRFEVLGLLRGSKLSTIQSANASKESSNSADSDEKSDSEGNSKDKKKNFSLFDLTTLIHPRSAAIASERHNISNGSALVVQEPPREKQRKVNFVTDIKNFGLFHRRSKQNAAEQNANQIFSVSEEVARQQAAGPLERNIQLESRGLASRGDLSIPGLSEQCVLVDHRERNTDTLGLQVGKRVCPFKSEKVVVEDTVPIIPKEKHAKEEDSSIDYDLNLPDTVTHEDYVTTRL
# Procedure: HEK-293 cells expressing hTRPC3, hTRPC4 or hTRPC5 were seeded into black-bottomed 96-well plates coated with poly-lysine (PDL), with 2×10^4 cells per well. After 8 h of culture, the original culture medium was discarded, and 60 µL of Fluo-4/AM dye with a final concentration of 4 µM was added. The plates were incubated at 37 °C for 60 min, and then rinsed five times with calcium flow detection buffer. […] Then, the agonist Englerin A (EA) (MedChemExpress, Shanghai, China, final concentration of 0.3nM) was added, and the fluorescence signal was collected for 600 seconds. The fluorescence signal of the trajectory diagram is represented by F/F0, wherein F is the fluorescence signal at different time points, and F0 is the basic fluorescence signal, that is, the average value of the fluorescence signal at the first 10 time points. […] The area under the curve of the change in fluorescence intensity after adding EA was calculated. IC50 value was calculated using log[Inhibitor] vs. response - Variable slope, taking into account the area under the curve and the log value of the concentration of the compound.
# [1] = Liver microsome stability test, mouse; format: in vitro ADME; settings: Mouse liver microsomes
# From the text: Calculation of Intrinsic Clearance: Clint = (1000 × slope)/(P); [formula]
# [2] = Table 1, TRPC5 channels, HEK-293 cells expressing hTRPC5, read-out: FLIPR IC50
# [3] = Table 3, read-out: inhibitory activity IC50 TRPC5
# [4] = Table 3, read-out: inhibitory activity IC50 TRPC4
MF % ([1]; metabolic bioavailability) [%],"half-life at 1 µM ([1]; pH 7.4, 1µM compound, read-out: Half-life T1/2) [min]",Structure (SMILES),IC50 (hTRPC5) [nM],IC50 (hTRPC4) [nM],IC50 (hTRPC5; [2]) [nM],IC50 (hTRPC5; [3]) [nM],IC50 (hTRPC4; [4]) [nM],Stability Evaluation [1]
–,–,Cn1c(=O)n(CCCO)c(=O)c2c1nc(C1(F)CCC(C(F)(F)F)CC1)n2Cc1ccc(F)c(F)c1 (stereo not shown) [Example E52],1.3,5.7,–,–,–,–
–,–,"Cn1c(=O)n(CCCO)c(=O)c2c1nc(C1(F)CCC(C(F)(F)F)CC1)n2Cc1ccc(Cl)cc1 (stereo not shown) [Example E21, 7-(4-chlorobenzyl)-8-(1-fluoro-4-(trifluoromethyl)cyclohexyl)-1-(3-hydroxypropyl)-3-methyl-3,7-dihydro-1H-purine-2,6-dione]",–,–,5.1,5.1,8.3,–
49.3,46,"Cn1c(=O)n(CCCO)c(=O)c2c1nc(C1(F)CCC(F)(F)CC1)n2Cc1ccc(F)c(Cl)c1 [Example E68, 7-(3-chloro-4-fluorobenzyl)-1-(3-hydroxypropyl)-3-methyl-8-(1,4,4-trifluorocyclohexyl)-3,7-dihydro-1H-purine-2,6-dione]",–,–,0.58,0.58,–,"Medium (30%<MF%<70%, medium metabolic stability)"
–,–,"COC1CCC(F)(c2nc3c(c(=O)n(CCCO)c(=O)n3C)n2Cc2ccc(Cl)cc2)CC1 (stereo not shown) [Example E32, 7-(4-chlorobenzyl)-8-(1-fluoro-4-methoxycyclohexyl)-1-(3-hydroxypropyl)-3-methyl-3,7-dihydro-1H-purine-2,6-dione]",–,–,10.2,10.2,18.4,–
